Where a name gives a salt, the structure may show the parent alone.
Assay: Estimated concentration in DMSO-d6 after shaking an excess at 38° C., cooling to 22° C. and decantation (1H-NMR integrals)
Format: physicochemical
Conditions: organic solvent or mixture, thermodynamic from solid, Composition Example 13, excess shaken at 38° C. for 15 min, cooled to 22° C., decanted, no additive, read-out: concentration in the solution (limit of solubility)
Method: A mixture of PEth-16:0/18:1-NMe3 (15 mg), dimethyl sulfone (0.4 mg) and DMSO-d6 (0.75 ml) was shaken at 38° C. for 15 min. The mixture was then allowed to reach ambient temperature (22° C.) and kept at that temperature for 1 h. The solution was then separated from a glassy precipitate by decantation and transferred to an NMR-tube. The concentration of PEth-16:0/18:1-NMe3 in the solution was estimated to be about 3 mg/ml by comparison of ^1H-NMR integrals in the ^1H-NMR spectrum (FIG. 7) of signals from PEth-16:0/18:1-NMe3 with the signal of dimethyl sulfone.

Compound `CCCCCCCC/C=C\CCCCCCCC(=O)O[C@H](COC(=O)CCCCCCCCCCCCCCC)COP(=O)(O)OCC` [PEth-16:0/18:1-NMe3, 1-Palmitoyl-2-oleoyl-3-ethoxyhydroxyphosphinyl-sn-glycerol trimethylammonium salt] has a solubility at 15 min of about 3000 µg/mL.

Reference: patent publication US9499572B2, “Phosphatidylalkanols and compositions thereof” (Pethmark AB, priority 2013, dated 2016)
